According to PMC10620772, “Design, synthesis, and biological evaluation of new pyrimidine-5-carbonitrile derivatives as novel anti-cancer, dual EGFR^WT/COX-2 inhibitors with docking studies” (RSC Advances, 2023):
“And” between values parts separate entries of the source, which are not always exact repeats. Equal values may be shown once. “Also recorded” adds a separate entry of the source.

What was measured:
Type in all cases: cell-based, human
[1] = test system: HS 578T; test: NCI60 antitumor screening
[2] = test system: SF-295; test: NCI60 antitumor screening
[3] = test system: EKVX; test: NCI60 antitumor screening
[4] = test system: NCI60 cell lines panel; test: NCI60 antitumor screening, full panel
How it was run: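 Single-concentration screen at 10 μM across the NCI60 panel (leukaemia, NSCLC, colon, CNS, melanoma, ovarian, renal, prostate, breast). Results are expressed as percent growth inhibition (GI%) of treated lines.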

[5] = test system: DU-145; test: NCI60 antitumor screening
[6] = test system: UACC-257; test: NCI60 antitumor screening
[7] = test system: ovarian cancer subpanel; test: NCI60 five-dose, subpanel VI
Text: (§1) (2) The molar concentration of the compound responsible for total growth inhibition, also known as total growth inhibition (TGI).
(§2) Regarding subpanel selectivity toward certain cancer type, the method of determining a compound's selectivity index is to divide the full panel MG-MID (μM) value by each single subpanel. Values above six indicate high selectivity against the subpanel; moderate selectivity is denoted by values between three and six. Conversely, compounds are termed nonselective if their selectivity is less than three.[30,37]

[8] = test system: HCT-116; test: NCI60 antitumor screening
[9] = test system: OVCAR-3; test: NCI60 antitumor screening
[10] = test system: prostate cancer subpanel; test: NCI60 five-dose, subpanel VIII
Text: as §1, §2

[11] = test system: SK-MEL-2; test: NCI60 antitumor screening; details: Homo sapiens; 10 μM single dose; SK-MEL-2 (melanoma); read-out: growth inhibition percent (GI%)
[12] = test system: KM12; test: NCI60 antitumor screening
[13] = test system: NCI-H23; test: NCI60 antitumor screening
[14] = test system: SR; test: NCI60 antitumor screening
[15] = test system: COLO 205; test: NCI60 antitumor screening
[16] = test system: MDA-MB-231/ATCC; test: NCI60 antitumor screening; details: Homo sapiens; 10 μM single dose; MDA-MB-231/ATCC (breast cancer); read-out: growth inhibition percent (GI%)
[17] = test system: PC-3; test: NCI60 antitumor screening
[18] = test system: M14; test: NCI60 antitumor screening
[19] = test system: MOLT-4; test: NCI60 antitumor screening
[20] = test system: SK-OV-3; test: NCI60 antitumor screening
[21] = test system: SN12C; test: NCI60 antitumor screening
[22] = test system: SK-MEL-28; test: NCI60 antitumor screening; details: Homo sapiens; 10 μM single dose; SK-MEL-28 (melanoma); read-out: growth inhibition percent (GI%)
[23] = test system: BT-549; test: NCI60 antitumor screening
[24] = test system: T-47D; test: NCI60 antitumor screening
[25] = test system: melanoma subpanel; test: NCI60 five-dose, subpanel V
Text: as §1, §2

[26] = test system: HOP-92; test: NCI60 antitumor screening
[27] = full panel MG-MID / subpanel VI
[28] = full panel MG-MID / subpanel VIII

N#Cc1c(-c2ccc(F)cc2)nc(SCc2ccc(F)cc2)nc1N1CCNCC1 [4f, 2-((4-Fluorobenzyl)thio)-4-(4-fluorophenyl)-6-(piperazin-1-yl) pyrimidine-5-carbonitrile]
GI50 ([1]; Homo sapiens, Hs-578T, five-dose): 15.6 µM | CC50 ([1]; Homo sapiens, Hs-578T, five-dose, read-out: LC50 (the source's name)): 77 µM | inhibition at 10 µM ([1]; Homo sapiens, 10 μM single dose, HS 578T (breast cancer), read-out: growth inhibition percent (GI%)): > 100% | TGI ([1]; five-dose): 34.60 µM | GI50 ([2]; Homo sapiens, SF-295, five-dose): 16.6 µM | CC50 ([2]; Homo sapiens, SF-295, five-dose, read-out: LC50 (the source's name)): 57.5 µM | inhibition at 10 µM ([2]; Homo sapiens, 10 μM single dose, SF-295 (CNS cancer), read-out: growth inhibition percent (GI%)): > 100% | TGI ([2]; five-dose): 30.90 µM | GI% ([3]; 10 μM one-dose): 98.71% | GI50 ([3]; Homo sapiens, EKVX, five-dose): 13.1 µM | LC50 ([3]; Homo sapiens, EKVX, five-dose): 52.9 µM | inhibition at 10 µM ([3]; Homo sapiens, 10 μM single dose, EKVX (non-small cell lung cancer), read-out: growth inhibition percent (GI%)): 98.7% | TGI ([3]; five-dose): 26.40 µM | One-dose activity over the NCI60 panel ([4]; 10 μM): lethal to most of cell lines; also recorded: Lethal to almost all NCI60 cell lines | inhibition at 10 µM ([4]; Homo sapiens, 10 μM single dose, mean over NCI60 cell lines, read-out: Mean growth inhibition percent (GI%)): > 100% | GI50 ([4]; Homo sapiens, average of all cell lines, read-out: Full panel MG-MID (GI50)): 13.5 µM | Full panel MG-MID (TGI) ([4]; average of all cell lines): 26.45 μM and 26.45 ^e μM | GI50 ([5]; Homo sapiens, DU-145, five-dose): 16.8 µM | CC50 ([5]; Homo sapiens, DU-145, five-dose, read-out: LC50 (the source's name)): 58.1 µM | inhibition at 10 µM ([5]; Homo sapiens, DU-145, read-out: growth inhibition percent (GI%)): > 100% | TGI ([5]; five-dose): 31.30 µM | GI50 ([6]; Homo sapiens, UACC-257, five-dose): 14.8 µM | CC50 ([6]; Homo sapiens, UACC-257, five-dose, read-out: LC50 (the source's name)): 55.8 µM | inhibition at 10 µM ([6]; Homo sapiens, 10 μM single dose, UACC-257 (melanoma), read-out: growth inhibition percent (GI%)): > 100% | TGI ([6]; five-dose): 28.70 µM | GI50 ([7]; Homo sapiens, subpanel VI, read-out: MG-MID (GI50)): 15 µM | Selectivity index (GI50) [7, 27]: 0.89 | Selectivity index (TGI) [7, 27]: 0.86 | MG-MID (TGI) ([7]; subpanel VI): 30.41 µM | GI50 ([8]; Homo sapiens, HCT-116, five-dose): 4.15 µM | CC50 ([8]; Homo sapiens, HCT-116, five-dose, read-out: LC50 (the source's name)): 42.8 µM | inhibition at 10 µM ([8]; Homo sapiens, 10 μM single dose, HCT-116 (colon cancer), read-out: growth inhibition percent (GI%)): > 100% | TGI ([8]; five-dose): 15.60 µM | GI50 ([9]; Homo sapiens, OVCAR-3, five-dose): 15.5 µM | CC50 ([9]; Homo sapiens, OVCAR-3, five-dose, read-out: LC50 (the source's name)): 61.2 µM | inhibition at 10 µM ([9]; Homo sapiens, 10 μM single dose, OVCAR-3 (ovarian cancer), read-out: growth inhibition percent (GI%)): > 100% | TGI ([9]; five-dose): 30.80 µM | GI50 ([10]; Homo sapiens, subpanel VIII, read-out: MG-MID (GI50)): 14.7 µM | Selectivity index (GI50) [10, 28]: 0.91 | Selectivity index (TGI) [10, 28]: 0.89 | MG-MID (TGI) ([10]; subpanel VIII): 29.50 µM | inhibition at 10 µM [11]: > 100% | GI50 ([12]; Homo sapiens, KM12, five-dose): 18 µM | CC50 ([12]; Homo sapiens, KM12, five-dose, read-out: LC50 (the source's name)): 63 µM | inhibition at 10 µM ([12]; Homo sapiens, 10 μM single dose, KM12 (colon cancer), read-out: growth inhibition percent (GI%)): > 100% | TGI ([12]; five-dose): 33.60 µM | GI50 ([13]; Homo sapiens, NCI-H23, five-dose): 16 µM | CC50 ([13]; Homo sapiens, NCI-H23, five-dose, read-out: LC50 (the source's name)): 57.5 µM | inhibition at 10 µM ([13]; Homo sapiens, 10 μM single dose, NCI-H23 (non-small cell lung cancer), read-out: growth inhibition percent (GI%)): > 100% | TGI ([13]; five-dose): 30.40 µM | GI50 ([14]; Homo sapiens, SR, five-dose): 2.18 µM | CC50 ([14]; Homo sapiens, SR, five-dose, read-out: LC50 (the source's name)): 17.5 µM | inhibition at 10 µM ([14]; Homo sapiens, 10 μM single dose, SR (leukaemia), read-out: growth inhibition percent (GI%)): > 100% | TGI ([14]; five-dose): 5.07 µM | IC50 ([15]; Homo sapiens, COLO 205): 1.83 µM | GI50 ([15]; Homo sapiens, COLO 205, five-dose): 1.83 µM | CC50 ([15]; Homo sapiens, COLO 205, five-dose, read-out: LC50 (the source's name)): 6.34 µM | inhibition at 10 µM ([15]; Homo sapiens, 10 μM single dose, COLO 205 (colon cancer), read-out: growth inhibition percent (GI%)): > 100% | TGI ([15]; five-dose): 3.40 µM | inhibition at 10 µM [16]: > 100% | GI% ([17]; 10 μM one-dose): 88.74% | GI50 ([17]; Homo sapiens, PC-3, five-dose): 12.5 µM | CC50 ([17]; Homo sapiens, PC-3, five-dose, read-out: LC50 (the source's name)): 61.3 µM | inhibition at 10 µM ([17]; Homo sapiens, 10 μM single dose, PC-3 (prostate cancer), read-out: growth inhibition percent (GI%)): 88.7% | TGI ([17]; five-dose): 27.70 µM | GI50 ([18]; Homo sapiens, M14, five-dose): 13.6 µM | CC50 ([18]; Homo sapiens, M14, five-dose, read-out: LC50 (the source's name)): 52.9 µM | inhibition at 10 µM ([18]; Homo sapiens, 10 μM single dose, M14 (melanoma), read-out: growth inhibition percent (GI%)): > 100% | TGI ([18]; five-dose): 26.80 µM | GI% ([19]; 10 μM one-dose): 92.21% | GI50 ([19]; Homo sapiens, MOLT-4, five-dose): 10.5 µM | CC50 ([19]; Homo sapiens, MOLT-4, five-dose, read-out: LC50 (the source's name)): 64.4 µM | inhibition at 10 µM ([19]; Homo sapiens, 10 μM single dose, MOLT-4 (leukaemia), read-out: growth inhibition percent (GI%)): 92.2% | TGI ([19]; five-dose): 26.00 µM | GI50 ([20]; Homo sapiens, SK-OV-3, five-dose): 16 µM | CC50 ([20]; Homo sapiens, SK-OV-3, five-dose, read-out: LC50 (the source's name)): 55.4 µM | inhibition at 10 µM ([20]; Homo sapiens, 10 μM single dose, SK-OV-3 (ovarian cancer), read-out: growth inhibition percent (GI%)): 43.3% | TGI ([20]; five-dose): 29.80 µM | GI50 ([21]; Homo sapiens, SN12C, five-dose): 15.3 µM | CC50 ([21]; Homo sapiens, SN12C, five-dose, read-out: LC50 (the source's name)): 55.2 µM | inhibition at 10 µM ([21]; Homo sapiens, 10 μM single dose, SN12C (renal cancer), read-out: growth inhibition percent (GI%)): > 100% | TGI ([21]; five-dose): 29.00 µM | inhibition at 10 µM [22]: > 100% | GI50 ([23]; Homo sapiens, BT-549, five-dose): 10.7 µM | CC50 ([23]; Homo sapiens, BT-549, five-dose, read-out: LC50 (the source's name)): 49.4 µM | inhibition at 10 µM ([23]; Homo sapiens, 10 μM single dose, BT-549 (breast cancer), read-out: growth inhibition percent (GI%)): 17.3% | TGI ([23]; five-dose): 23.00 µM | inhibition at 10 µM ([24]; Homo sapiens, T47D, 10 μM single dose, T-47D (breast cancer), read-out: growth inhibition percent (GI%)): > 100% | GI50 ([24]; Homo sapiens, T47D, five-dose): 13.8 µM | CC50 ([24]; Homo sapiens, T47D, five-dose, read-out: LC50 (the source's name)): 67.2 µM | TGI ([24]; five-dose): 30.40 µM | GI50 ([25]; Homo sapiens, subpanel V, read-out: MG-MID (GI50)): 13.9 µM | Selectivity index (GI50) ([25]; full panel MG-MID / subpanel V): 0.96 | Selectivity index (TGI) ([25]; full panel MG-MID / subpanel V): 1.00 | MG-MID (TGI) ([25]; subpanel V): 26.43 µM | GI50 ([26]; Homo sapiens, HOP-92, five-dose): 7.64 µM | CC50 ([26]; Homo sapiens, HOP-92, five-dose, read-out: LC50 (the source's name)): 53.4 µM | inhibition at 10 µM ([26]; Homo sapiens, 10 μM single dose, HOP-92 (non-small cell lung cancer), read-out: growth inhibition percent (GI%)): > 100% | TGI ([26]; five-dose): 22.10 µM
